Test [1] has as its system P388 murine leukemia cells. The test can be described thus: Antiproliferative effect against murine P388 leukemia cells, MTT. The format is cell-based. The conditions noted are these: Mus musculus, 48 hour exposure. The protocol:
The crude ethanolic extract and pure compound was tested for toxicity against murine P388 leukemia cells. P388 cells obtained from J. Mayo, National Cancer Institute, Bethesda, Md., were maintained in Roswell Park Memorial Institute medium 1640 (RPMI-1640) supplemented with 10% horse serum. All cell lines were cultured in plastic tissue culture flasks and kept in an incubator at 37° C. in humidified air containing 5% CO2. Antibiotic-free stock cultures of P388 cells were subcultured to 10^5 cells/ml by dilution in fresh growth medium at 2-3 day intervals. The mean generation time of primary cultures was 14-17 hours.
To assess the antiproliferative effects of agents against P388 cells, 200 μl cultures (96-well tissue culture plates, Nunc, Denmark) were established at 1×10^6 cells/ml in drug-free medium or medium containing the crude extract at a final dilution of 1:500 of compound 1 or 2 at various concentrations. Solvent for all dilutions was methanol, which was removed from plates under vacuum. All experimental cultures were initiated in medium containing Gentamicin sulfate ([…]; Schering Corporation, Kenilworth, N.J.). After 48 hour exposures, P388 cells were enumerated using 3-[4,5-dimethylthiazol-2-yl]-2,5-diphenyltetrazolium bromide (MTT) as described below (Alley, M. C. et al. [1988] Cancer Res. 48:589).
To quantitate the effects on cell proliferation, 75 μl of warm growth medium containing 5 mg/ml MTT was added to each well and cultures were returned to the incubator for 90 minutes. To spectrophotometrically quantitate formation of reduced formazan, plates were centrifuged (900 xg, 5 minutes), culture fluids removed by aspiration, and 200 μl of acidified isopropanol (2 ml concentrated HCl/liter isopropanol) added per well. The absorbance of the resulting solutions were measured at 570 nm with a plate reader (MR700 Microplate Reader, Dynatech Laboratories, Chantilly, Va.). […] A linear relationship between P388 cell number and formazan production was found over the range of cell densities observed in these experiments.

The test system of test [2] is influenza virus type A strain PR8. The test can be described thus: Antiviral assay: cytopathic effect (CPE) reduction, influenza virus type A strain PR8 in MDCK cells, neutral red dye uptake. The format is cell-based, Influenza A strain A/PR/8/34 (HINI). For orientation: Damage to the host cells serves as the signal in cytopathic effect assays.
A further test deals with MDCK cells. The test can be described thus: Growth inhibition (cytotoxicity) of MDCK cells in the PR-8 antiviral assay, neutral red. The format is cell-based, canine (Canis familiaris). The conditions noted are these: Canis lupus familiaris, 50% growth inhibition.
Setting [3] is: molar restatement of μg per 200 μl value.

Molecules are shown by their SMILES. Values after ≈ are worked out from the molar mass of the structure shown.

For `COc1ccc(O)c2c1CC1(C)C(C)CCC3C(C)(C)CCCC31O2` (stereo not shown) [Compound 1], the IC50 (as a rule, the concentration at which inhibition is half-maximal) was 13 µg/mL (≈ 37.7 µM) in test [1]; 19 µM in the test on MDCK cells (setting [3]); 6.5 µg/mL in the test on MDCK cells (72 h, read on day 3). Besides, the “in vitro therapeutic index (TI)” value in test [2] (dog, mdck) worked out at 9.

As for `COc1ccc(OC(C)=O)c2c1CC1(C)C(C)CCC3C(C)(C)CCCC31O2` (stereo not shown) [Compound 2], the IC50 was 23.8 µg/mL (≈ 61.6 µM) in test [1]; 15 µM in the test with MDCK cells (setting [3]); 5 µg/mL in the test with MDCK cells (72 h, read on day 3). Further, the “in vitro therapeutic index (TI)” value in test [2] (dog, mdck) worked out at 100.

Take `C[C@H]1CC[C@H]2C(C)(C)CCC[C@]23Oc2ccc(O)cc2C[C@]13C` [aureol, reference compound]: the IC50 in test [1] is 9 µg/mL (≈ 28.6 µM); in the test with MDCK cells (setting [3]), 11.6 µM; in the test on MDCK cells (72 h, read on day 3), 3.65 µg/mL. The “activity against influenza virus type A strain PR-8 (in words)” value in test [2] is “strong antiviral activity”. In test [2] (ratio of IC50/EC50), the “in vitro therapeutic index (TI)” value is 116.

Source of the values: patent publication US5051519A, “Novel antiviral and antitumor terpene hydroquinones and methods of use” (Harbor Branch Oceanographic Institution, Inc., priority 1990, dated 1991).
